# From US20150105252A1, “SUBSTITUTED PYRAZOLES AS HERBICIDES” (E I DU PONT DE NEMOURS AND COMPANY, priority 2013, published 2015)
# Tests used:
# barnyardgrass [1] = assay: Test A preemergence; format: in vivo, Echinochloa crus-galli
# Method in brief: (§1)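 Ratings express plant response from 0 (no effect) to 100 (complete control), judged visually against untreated controls after approximately 10 days in the greenhouse. Preemergence applications were made as directed soil sprays onto seeded loam–sand mix, and postemergence applications onto 2–10 cm plants at one- to two-leaf stage.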
# crabgrass, large [2] = assay: Test A preemergence; format: in vivo, Digitaria sanguinalis
# Method in brief: as §1
# foxtail, giant [3] = assay: Test A preemergence; format: in vivo, Setaria faberii
# Method in brief: as §1
# morningglory [4] = assay: Test A preemergence; format: in vivo, Ipomoea spp.
# Method in brief: as §1
# pigweed [5] = assay: Test A preemergence; format: in vivo, Amaranthus retroflexus
# Method in brief: as §1
# velvetleaf [6] = assay: Test A preemergence; format: in vivo, Abutilon theophrasti
# Method in brief: as §1
# wheat [7] = assay: Test A preemergence; format: in vivo, Triticum aestivum; conditions: preemergence
# Method in brief: as §1
# corn [8] = assay: Test A preemergence; format: in vivo, Zea mays
# Method in brief: as §1
# barnyardgrass [9] = assay: Test A postemergence; format: in vivo, Echinochloa crus-galli
# Method in brief: as §1
# crabgrass, large [10] = assay: Test A postemergence; format: in vivo, Digitaria sanguinalis
# Method in brief: as §1
# foxtail, giant [11] = assay: Test A postemergence; format: in vivo, Setaria faberii
# Method in brief: as §1
# morningglory [12] = assay: Test A postemergence; format: in vivo, Ipomoea spp.
# Method in brief: as §1
# pigweed [13] = assay: Test A postemergence; format: in vivo, Amaranthus retroflexus
# Method in brief: as §1
# velvetleaf [14] = assay: Test A postemergence; format: in vivo, Abutilon theophrasti
# Method in brief: as §1
# wheat [15] = assay: Test A postemergence; format: in vivo, Triticum aestivum
# Method in brief: as §1
# corn [16] = assay: Test A postemergence; format: in vivo, Zea mays
# Method in brief: as §1
# rice = assay: Test B flood; format: in vivo, Oryza sativa; conditions: 250 g ai/ha, visual rating on 0 to 100 scale (0 no effect, 100 complete control), 13 to 15 days
# Description: (§2) Seeds selected from rice (Oryza sativa), sedge, umbrella (small-flower umbrella sedge Cyperus difformis), ducksalad (Heteranthera limosa), and barnyardgrass (Echinochloa crus-galli) were grown to the 2-leaf stage for testing. At time of treatment, test pots were flooded to 3 cm above the soil surface, treated by application of test compounds directly to the paddy water, and then maintained at that water depth for the duration of the test.
# (§3) Treated plants and controls were maintained in a greenhouse for 13 to 15 days, after which time all species were compared to controls and visually evaluated. Plant response ratings, summarized in Table B, are based on a scale of 0 to 100 where 0 is no effect and 100 is complete control. A dash (-) response means no test result.
# sedge, umbrella = assay: Test B flood; format: in vivo, Cyperus difformis; conditions: 250 g ai/ha, visual rating on 0 to 100 scale (0 no effect, 100 complete control), 13 to 15 days
# Description: as §2, §3
# ducksalad = assay: Test B flood; format: in vivo, Heteranthera limosa; conditions: 250 g ai/ha, visual rating on 0 to 100 scale (0 no effect, 100 complete control), 13 to 15 days
# Description: as §2, §3
# barnyardgrass [17] = assay: Test B flood; format: in vivo, Echinochloa crus-galli; conditions: 250 g ai/ha, visual rating on 0 to 100 scale (0 no effect, 100 complete control), 13 to 15 days
# Description: as §2, §3
# [18] = Preemergence, 500 g ai/ha, 0 to 100 scale, 0 no effect, 100 complete control
# [19] = preemergence, 125 g ai/ha, visual injury, 0 to 100 scale, approx. 10 days
# [20] = 500 g ai/ha, visual injury after approx. 10 days, 0 to 100 scale (0 no effect, 100 complete control)
# [21] = Postemergence, 500 g ai/ha, visual rating after approx. 10 days, 0 to 100 scale (0 no effect, 100 complete control)
# [22] = postemergence, 125 g ai/ha, about 10 days, visual rating on 0 to 100 scale (0 no effect, 100 complete control)
# [23] = preemergence, 500 g ai/ha, visual injury after approx. 10 days, 0 to 100 scale (0 no effect, 100 complete control)
# [24] = preemergence, 125 g ai/ha, visual injury approx. 10 days after treatment
# [25] = Postemergence, 500 g ai/ha, 0 to 100 scale (0 no effect, 100 complete control)
compound,measurement,setting,value
CCCNC(=O)c1cc(CC)n(Oc2ccnc(C(F)(F)F)c2)n1 [Compound 82],Barnyardgrass plant response rating,barnyardgrass [1]; [18],80
same,Barnyardgrass plant response rating,barnyardgrass [1]; [19],30
same,"Crabgrass, Large plant response rating","crabgrass, large [2]; [18]",100
same,"Crabgrass, Large plant response rating","crabgrass, large [2]; [19]",70
same,"Foxtail, Giant plant response rating","foxtail, giant [3]; [18]",100
same,"Foxtail, Giant plant response rating","foxtail, giant [3]; [19]",40
same,Morningglory plant response rating,morningglory [4]; [18],50
same,Morningglory plant response rating,morningglory [4]; [19],10
same,Pigweed plant response rating,pigweed [5]; [18],60
same,Pigweed plant response rating,pigweed [5]; [19],0
same,Velvetleaf plant response rating,velvetleaf [6]; [18],20
same,Velvetleaf plant response rating,velvetleaf [6]; [19],0
same,Wheat plant response rating,"wheat [7]; 125 g ai/ha, visual injury, 0 to 100 scale, approx. 10 days",10
same,Wheat plant response rating,wheat [7]; [20],60
same,Corn plant response rating,corn [8]; [18],60
same,Corn plant response rating,corn [8]; [19],20
same,Barnyardgrass plant response rating,"barnyardgrass [9]; Postemergence, 125 g ai/ha, 0 to 100 scale, 0 no effect, 100 complete control",20
same,Barnyardgrass plant response rating,barnyardgrass [9]; [21],50
same,"Crabgrass, Large plant response rating","crabgrass, large [10]; [21]",60
same,"Crabgrass, Large plant response rating","crabgrass, large [10]; [22]",30
same,"Foxtail, Giant plant response rating","foxtail, giant [11]; [21]",60
same,"Foxtail, Giant plant response rating","foxtail, giant [11]; [22]",10
same,Morningglory plant response rating,morningglory [12]; [21],60
same,Morningglory plant response rating,morningglory [12]; [22],50
same,Pigweed plant response rating,pigweed [13]; [21],30
same,Pigweed plant response rating,pigweed [13]; [22],10
same,Velvetleaf plant response rating,velvetleaf [14]; [21],20
same,Velvetleaf plant response rating,velvetleaf [14]; [22],10
same,Wheat plant response rating,wheat [15]; [21],50
same,Wheat plant response rating,wheat [15]; [22],0
same,Corn plant response rating,corn [16]; [21],60
same,Corn plant response rating,corn [16]; [22],20
same,"Plant response rating, Rice",rice,0
same,"Plant response rating, Sedge, Umbrella","sedge, umbrella",75
same,"Plant response rating, Ducksalad",ducksalad,30
same,"Plant response rating, Barnyardgrass",barnyardgrass [17],0
CCCCNC(=O)c1cc(Br)n(Cc2cccc(C(F)(F)F)c2)n1 [Compound 162],Barnyardgrass plant response rating,barnyardgrass [1]; [19],0
same,Barnyardgrass plant response rating,barnyardgrass [1]; [23],0
same,"Crabgrass, Large plant response rating (0 to 100 scale)","crabgrass, large [2]; [24]",0
same,"Crabgrass, Large plant response rating","crabgrass, large [2]; [23]",30
same,"Foxtail, Giant plant response rating (0 to 100 scale)","foxtail, giant [3]; [24]",0
same,"Foxtail, Giant plant response rating","foxtail, giant [3]; [23]",60
same,Morningglory plant response rating (0 to 100 scale),morningglory [4]; [24],0
same,Morningglory plant response rating,morningglory [4]; [23],0
same,Pigweed plant response rating (0 to 100 scale),pigweed [5]; [24],0
same,Pigweed plant response rating,pigweed [5]; [23],0
same,Velvetleaf plant response rating (0 to 100 scale),velvetleaf [6]; [24],0
same,Velvetleaf plant response rating,velvetleaf [6]; [23],0
same,Wheat plant response rating (0 to 100 scale),"wheat [7]; 125 g ai/ha, visual injury approx. 10 days after treatment",0
same,Wheat plant response rating,wheat [7]; [20],0
same,Corn plant response rating (0 to 100 scale),corn [8]; [24],0
same,Corn plant response rating,corn [8]; [23],0
same,Barnyardgrass plant response rating,barnyardgrass [9]; [25],20
same,Barnyardgrass plant response rating,barnyardgrass [9]; [22],0
same,"Crabgrass, Large plant response rating","crabgrass, large [10]; [25]",20
same,"Crabgrass, Large plant response rating","crabgrass, large [10]; [22]",10
same,"Foxtail, Giant plant response rating","foxtail, giant [11]; [25]",20
same,"Foxtail, Giant plant response rating","foxtail, giant [11]; [22]",10
same,Morningglory plant response rating,morningglory [12]; [25],40
same,Morningglory plant response rating,morningglory [12]; [22],20
same,Pigweed plant response rating,pigweed [13]; [25],60
same,Pigweed plant response rating,pigweed [13]; [22],40
same,Velvetleaf plant response rating,velvetleaf [14]; [25],40
same,Velvetleaf plant response rating,velvetleaf [14]; [22],0
same,Wheat plant response rating,wheat [15]; [25],0
same,Wheat plant response rating,wheat [15]; [22],0
same,Corn plant response rating,corn [16]; [25],20
same,Corn plant response rating,corn [16]; [22],10
same,"Plant response rating, Rice",rice,0
same,"Plant response rating, Sedge, Umbrella","sedge, umbrella",0
same,"Plant response rating, Ducksalad",ducksalad,0
same,"Plant response rating, Barnyardgrass",barnyardgrass [17],0
